Assay [1] relates to Candida albicans. Description: Antifungal activity against Candida albicans AMB-25 incubated for 48 hrs by serial two-fold dilution method. The class given is functional.
In assay [2] the test system is Candida albicans. Put plainly: Antifungal activity against Candida albicans ATCC 262 incubated for 24 hrs by turbidimetric method. The class given is functional.
Assay [3] concerns Candida albicans. Description: Antifungal activity against Candida albicans incubated for 24 hrs by turbidimetric method. The class given is functional.
The nature of assay [4]: Inhibition of Candida albicans IFO1060 1,3-beta-D-glucan synthase.
Assay [5] can be described thus: Inhibition of fungi 1,3-beta-D-glucan synthase.
Another assay has as its system Aspergillus fumigatus. Put plainly: Antifungal activity against Aspergillus fumigatus CF1083 infected in iv dosed mouse model of pulmonary aspergillosis administered once daily for 4 days and measured on day 14. It is filed as functional. As to conditions: 336 h, time 14 day.
Assay [6] has as its system Candida albicans. Description: Antifungal activity against Candida albicans K335 by agar incorporation method. The class given is functional.
The subject of assay [7] is Candida albicans. Put plainly: Antifungal activity against Candida albicans K1082 by agar incorporation method. It is filed as functional.
A further assay relates to Pichia kudriavzevii. Description: Antifungal activity against Candida krusei K1153 by agar incorporation method. The class given is functional.
Assay [8] relates to Candida tropicalis. Description: Antifungal activity against Candida tropicalis K1155 by agar incorporation method. It is filed as functional.
Assay [9] relates to Candida parapsilosis. Description: Antifungal activity against Candida parapsilosis K332 by agar incorporation method. It is filed as functional. As to conditions: Lodderomyces parapsilosis.
Assay [10] has as its system Meyerozyma guilliermondii. Description: Antifungal activity against Candida guilliermondii K334 by agar incorporation method. It is filed as functional.
The subject of assay [11] is Candida albicans. Description: Antifungal activity against Candida albicans K341 by agar incorporation method. The class given is functional.
For assay [12], the system named is Candida tropicalis. Description: Antifungal activity against Candida tropicalis K337 by agar incorporation method. The class given is functional.
Assay [13] deals with Candida albicans. Put plainly: Antifungal activity against Candida albicans K1133 by agar incorporation method. The class given is functional.
Assay [14] has as its system Candida parapsilosis. Description: Antifungal activity against Candida parapsilosis K1154 by agar incorporation method. It is filed as functional. As to conditions: Lodderomyces parapsilosis.
The subject of a further assay is Cyberlindnera jadinii. Description: Antifungal activity against Candida utilis K482 by agar incorporation method. Conditions: Williopsis jadinii. The class given is functional.

Each structure is given as a SMILES string. ≈ marks a conversion by molar mass, not a printed value.

The term MIC denotes the lowest concentration found to suppress growth. `COC(=O)/C=C/C(=O)NC[C@H](N)C(=O)N[C@@H](CC(C)C)C(=O)O`: the MIC in the assay with Candida albicans [1] was 0.4 µg/mL (≈ 1.21 µM). With `CCC[C@H](NC(=O)[C@H](CNC(=O)/C=C/C(=O)OC)NC(=O)[C@@H](N)CCC)C(=O)O`, the values for the minimal inhibitory concentration (MIC) against Candida albicans [2] and in the assay with Candida albicans [3] were 0.05 µg/mL (≈ 0.121 µM) and 0.025 µg/mL (≈ 0.0603 µM), respectively. The corresponding values for `COC(=O)/C=C/C(=O)NC[C@H](NC(=O)[C@H](C)N)C(=O)N[C@@H](C)C(=O)O` are 0.025 µg/mL (≈ 0.0698 µM) and 0.025 µg/mL (≈ 0.0698 µM). As for `CCC[C@H](NC(=O)[C@@H](N)CCCCN)C(=O)N[C@@H](CNC(=O)/C=C/C(=O)OC)C(=O)O`, the MIC against Candida albicans [2] and against Candida albicans [3] was 0.025 µg/mL (≈ 0.0564 µM) throughout. The compound `CCCCC(N)C(=O)N[C@@H](CNC(=O)/C=C/C(=O)OC)C(=O)O` (some centres not stated) returned an MIC with Candida albicans [1] of 0.4 µg/mL (≈ 1.21 µM).

Usually IC50 stands for the midpoint of a concentration-inhibition curve. Higher therefore signals a need for much substance. `CCCCCCCCCCCCC[C@H]1OC(=O)[C@H](CCCNC(=O)[C@@H](N)CCCN)NC(=O)[C@@H]([C@@H](C)O)NC(=O)CNC(=O)[C@H]([C@H](O)CC(N)=O)NC(=O)[C@H]2[C@@H](O)CCN2C(=O)[C@H]([C@@H](C)O)NC(=O)[C@@H]2C[C@@H](O)CN2C(=O)[C@H](C(C)C)NC(=O)[C@H](Cc2ccc(O)cc2)NC(=O)[C@@H](C)NC(=O)[C@H]([C@@H](C)O)NC1=O` yielded an IC50 in [4] of 8 nM. That is a single-digit nanomolar value.

As for `COC(=O)/C=C/C(=O)NC[C@H](N)C(=O)N[C@@H](CCSC)C(=O)O`, it took 0.4 µg/mL (≈ 1.15 µM) to inhibit growth against Candida albicans [1] (MIC). Broadly, the ED50 is the dose at which the effect has come halfway, by size or by number of responders. `CCCCCCCCCCCCC[C@H]1OC(=O)[C@H](CCCN(CCN)C(=O)[C@H](CCCN)N(CCN)CCN)NC(=O)[C@@H]([C@@H](C)O)NC(=O)CNC(=O)[C@H]([C@H](O)CC(N)=O)NC(=O)[C@H]2[C@@H](O)CCN2C(=O)[C@H]([C@@H](C)O)NC(=O)[C@@H]2C[C@@H](O)CN2C(=O)[C@H](C(C)C)NC(=O)[C@H](Cc2ccc(O)cc2)NC(=O)[C@@H](C)NC(=O)[C@H]([C@@H](C)O)NC1=O`: the IC50 in assay [5] turned out to be 0.2 nM. In the assay with Aspergillus fumigatus, this compound registered an ED50 of 5.2 mg/kg. On to `COC(=O)/C=C/C(=O)NC[C@H](N)C(=O)N[C@@H](CCSC)C(=O)N[C@@H](C)C(=O)O`, for which the MIC against Candida albicans [2] and in the assay on Candida albicans [3] was 0.025 µg/mL (≈ 0.0597 µM) each time. Turning to `COC(=O)/C=C/C(=O)NC[C@H](NC(=O)[C@H](N)Cc1ccc(O)cc1)C(=O)O`, inhibition of growth in the assay on Candida albicans [1] (MIC) required 0.4 µg/mL (≈ 1.05 µM). Take `COC(=O)/C=C/C(=O)NC[C@H](NC(=O)[C@H](CCSC)NC(=O)[C@@H](N)CNC(=O)/C=C/C(=O)OC)C(=O)O`: the MIC with Candida albicans [2] and in the assay on Candida albicans [3] was 0.025 µg/mL (≈ 0.0458 µM) in each case.

`COC(=O)/C=C/C(=O)NC[C@H](N)C(=O)N[C@@H](Cc1ccccc1)C(=O)O`: in the assay with Candida albicans [1], the minimal inhibitory concentration (MIC) was determined as 0.4 µg/mL (≈ 1.1 µM). For `CCC(O)/C=C/C=C/C=C/C(=O)OC[C@H]1O[C@@H](O[C@H]2[C@H](OC(=O)/C=C/C=C/C[C@H](O)/C(C)=C/C=C/CC[C@@H](C)CC)[C@@H](O)[C@@]3(OCc4cc(O)cc(O)c43)O[C@@H]2CO)[C@H](O)[C@@H](O)[C@H]1O` (some centres not stated), the MIC (against Candida albicans [6]; in the assay on Candida albicans [7]; in the assay with Pichia kudriavzevii; in the assay on Candida tropicalis [8]; against Candida parapsilosis [9]; in [10]) was 0.1 µg/mL (≈ 0.111 µM) throughout. Moreover, the MIC against Candida albicans [11], against Candida tropicalis [12], against Candida albicans [13], against Candida parapsilosis [14] and against Cyberlindnera jadinii was 0.1 µg/mL (≈ 0.111 µM) throughout. For `CCC(N)C(=O)N[C@@H](CNC(=O)/C=C/C(=O)OC)C(=O)O` (some centres not stated), in the assay on Candida albicans [1], the minimal inhibitory concentration (MIC) amounted to 0.4 µg/mL (≈ 1.33 µM).

As to `CCCCCCCCCCCCC[C@H]1OC(=O)[C@H](CCCN(CCCN)C(=O)[C@@H](CCCN)N(CCN)CCN)NC(=O)[C@@H]([C@@H](C)O)NC(=O)CNC(=O)[C@H]([C@H](O)CC(N)=O)NC(=O)[C@H]2[C@@H](O)CCN2C(=O)[C@H]([C@@H](C)O)NC(=O)[C@@H]2C[C@@H](O)CN2C(=O)[C@H](C(C)C)NC(=O)[C@H](Cc2ccc(O)cc2)NC(=O)[C@@H](C)NC(=O)[C@H]([C@@H](C)O)NC1=O`, the IC50 in [5] amounted to 0.28 nM. The median effective dose (ED50) in the assay with Aspergillus fumigatus turned out to be 5.2 mg/kg. Take `COC(=O)/C=C/C(=O)NC[C@H](N)C(=O)N[C@@H](Cc1ccc(O)cc1)C(=O)O`: in the assay with Candida albicans [1], inhibition of growth (MIC) required 0.4 µg/mL (≈ 1.05 µM). `CCCCCCCCCCCCC[C@H]1OC(=O)[C@H](CCCNC(=O)[C@@H](CCCN)N(CCN)CCN)NC(=O)[C@@H]([C@@H](C)O)NC(=O)CNC(=O)[C@H]([C@H](O)CC(N)=O)NC(=O)[C@H]2[C@@H](O)CCN2C(=O)[C@H]([C@@H](C)O)NC(=O)[C@@H]2C[C@@H](O)CN2C(=O)[C@H](C(C)C)NC(=O)[C@H](Cc2ccc(O)cc2)NC(=O)[C@@H](C)NC(=O)[C@H]([C@@H](C)O)NC1=O` registered a concentration for half-maximal inhibition (IC50) in [5] of 0.9 nM. In addition, the 50% effect level in the assay with Aspergillus fumigatus (ED50) was put at a dose of 5.2 mg/kg. As to `CCCCCCCCCCCCC[C@H]1OC(=O)[C@H](CCCNC(=O)[C@H](N)CCCN)NC(=O)[C@@H]([C@@H](C)O)NC(=O)CNC(=O)[C@H]([C@H](O)CC(N)=O)NC(=O)[C@H]2[C@@H](O)CCN2C(=O)[C@H]([C@@H](C)O)NC(=O)[C@@H]2C[C@@H](O)CN2C(=O)[C@H](C(C)C)NC(=O)[C@H](Cc2ccc(O)cc2)NC(=O)[C@@H](C)NC(=O)[C@H]([C@@H](C)O)NC1=O`, 5 nM corresponded to half-maximal inhibition in [4] (IC50).

Turning to `COC(=O)/C=C/C(=O)NC[C@H](NC(=O)[C@H](N)Cc1ccccc1)C(=O)O`, the MIC in the assay on Candida albicans [1] was 0.4 µg/mL (≈ 1.1 µM).

These data come from ChEMBL document CHEMBL4715849, “Recent Progress in the Discovery of Antifungal Agents Targeting the Cell Wall” (J Med Chem, 2020).
